Assay results taken from patent US9714250B2, “Crystalline forms of temozolomide and the method for preparing same” (Jiangsu Tasly Diyi Pharmaceutical Co., Ltd., priority 2013, dated 2017).

Assays:
Format in all cases: physicochemical
[1] = Accelerated test (stability); conditions: 40±2° C., relative humidity 75±5%; for Appearance and color / Content / Related substances: polyethylene film bag; for Related substances: HPLC
Experimental: (§1) In the following test, related substances were determined as follows: HPLC method was used and chromatographic conditions were as follows: C18 column using octadecylsilane bonded silica gel as the filler, isocratic elution using methanol: 0.5% glacial acetic acid solution (10:90) as the mobile phase, and detection wavelength was at 254 nm.
Crystalline Form A of Temozolomide (Form A0 prepared by the method of EXAMPLE 1) was sealed by a polyethylene film bag, placed under conditions of 40±2° C. and a relative humidity of 75±5% for 6 months, sampled and determined at the end of the 1st,2nd, 3rd and 6th month.
Crystalline Form B of Temozolomide (Form B0 prepared by the method of EXAMPLE 6) was sealed with a polyethylene film bag and placed under conditions of 40±2° C. and a relative humidity of 75±5% for 6 months, sampled and determined at the end of the 1st, 2nd, 3rd and 6th month.
Crystalline Form C of Temozolomide (Form C prepared by the method of EXAMPLE 14) was sealed with a polyethylene film bag and placed under conditions of 40±2° C. and a relative humidity of 75±5% for 6 months, sampled and determined at the end of the 1st, 2nd, 3rd and 6th month.

Solubility test = conditions: for Amount of solvent for dissolving tested drug: about 10 mg tested drug
Experimental: It should be noted that each crystalline form of Form A, Form B and Form C has similar solubility properties. Hereinafter, Form A0, B0 and C were chosen only for illustrative purpose.
1. Solubility test of the crystalline Form A of Temozolomide (Form A0 prepared by the method of EXAMPLE 1). Solubility properties were assayed respectively by using DMSO, methanol, water, glacial acetic acid, 0.1M HCl, 0.1M NaOH and ethanol as the solvents.
2. Solubility test of the crystalline form B of Temozolomide (Form B0 prepared by the method of EXAMPLE 6). Solubility properties were assayed respectively by using DMSO, methanol, water, glacial acetic acid, 0.1M HCl, 0.1M NaOH and ethanol as the solvents.
3. Solubility test of the crystalline form C of Temozolomide (Form C prepared by the method of EXAMPLE 14). Solubility properties were assayed respectively by using DMSO, methanol, water, glacial acetic acid, 0.1M HCl, 0.1M NaOH and ethanol as the solvents.

[2] = Stability test, overall conclusions; conditions: light exposure, high-temperature, high-humidity and accelerated tests
Experimental: as §1
It should be noted that each crystalline form of Form A, Form B and Form C has similar stability properties. Hereinafter, Form A0, Form B0 and Form C were chosen only for illustrative purpose.

[3] = Light exposure test (stability); conditions: for Appearance and color / Content / Drying loss / Related substances: light intensity 4500±500Lx; for Related substances: HPLC
Experimental: as §1
Crystalline form A of Temozolomide (Form A0 prepared by the method of EXAMPLE 1) was exposed under conditions of light intensity of 4500±500Lx, sampled and determined on the 5th and 10th day.
Crystalline form B of Temozolomide (Form B0 prepared by the method of EXAMPLE 6) was placed, exposed under conditions of light intensity of 4500±500Lx, sampled and determined on the 5th and 10th day.
Crystalline Form C of Temozolomide (Form C prepared by the method of EXAMPLE 14) was placed, exposed under conditions of light intensity of 4500±500Lx, sampled and determined on the 5th and 10th day.

[4] = High humidity test (stability); conditions: for Related substances: HPLC
Experimental: as §1
Crystalline Form A of Temozolomide (Form A0 prepared by the method of EXAMPLE 1) was placed in 25° C. incubator (relative humidity: 75±5%), sampled and determined on the 5th and 10th day.
Crystalline Form B of Temozolomide (Form B0 prepared by the method of EXAMPLE 6) was placed in 25° C. incubator (relative humidity: 75±5%), sampled and determined on the 5th and 10th day.
Crystalline Form C of Temozolomide (Form C prepared by the method of EXAMPLE 14) was placed in 25° C. incubator (relative humidity: 75±5%), sampled and determined on the 5th and 10th day.

[5] = 25° C., relative humidity 75±5%, 0th day
[6] = 25° C., relative humidity 75±5%, 5th day
[7] = 25° C., relative humidity 75±5%, 10th day

- Stability in the accelerated test (conclusion) ([1]; 6 months): stable
- Appearance and color ([1]; 0th month): White powder
- Content ([1]; 0th month): 99.97%
- Related substances ([1]; 0th month): Not detected
- Appearance and color ([1]; 1st month): White powder
- Content ([1]; 1st month): 99.71%
- Related substances ([1]; 1st month): Not detected
- Appearance and color ([1]; 2nd month): White powder
- Content ([1]; 2nd month): 99.82%
- Related substances ([1]; 2nd month): Not detected
- Appearance and color ([1]; 3rd month): White powder
- Content ([1]; 3rd month): 99.73%
- Related substances ([1]; 3rd month): Not detected
- Appearance and color ([1]; 6th month): White powder
- Content ([1]; 6th month): 99.85%
- Related substances ([1]; 6th month): Not detected
- Amount of solvent for dissolving 1 g of tested drug (Solubility test; solvent 0.1M HCl): 800 mL
- Solubility (Solubility test; solvent 0.1M HCl): Slightly soluble
- Amount of solvent for dissolving tested drug (Solubility test; solvent 0.1M HCl): 8 mL
- Amount of solvent for dissolving 1 g of tested drug (Solubility test; solvent 0.1M NaOH): 300 mL
- Solubility (Solubility test; solvent 0.1M NaOH): Slightly soluble
- Amount of solvent for dissolving tested drug (Solubility test; solvent 0.1M NaOH): 3 mL
- Amount of solvent for dissolving 1 g of tested drug (Solubility test; solvent DMSO): 70 mL
- Solubility (Solubility test; solvent DMSO): sparingly
- Amount of solvent for dissolving tested drug (Solubility test; solvent DMSO): 0.6 mL
- Amount of solvent for dissolving 1 g of tested drug (Solubility test; solvent Ethanol): 5700 mL
- Solubility (Solubility test; solvent Ethanol): Very slightly
- Amount of solvent for dissolving tested drug (Solubility test; solvent Ethanol): 57 mL
- Amount of solvent for dissolving 1 g of tested drug (Solubility test; solvent Glacial acetic acid): 300 mL
- Solubility (Solubility test; solvent Glacial acetic acid): Slightly soluble
- Amount of solvent for dissolving tested drug (Solubility test; solvent Glacial acetic acid): 3.0 mL
- Amount of solvent for dissolving 1 g of tested drug (Solubility test; solvent Methanol): 900 mL
- Solubility (Solubility test; solvent Methanol): Slightly soluble
- Amount of solvent for dissolving tested drug (Solubility test; solvent Methanol): 9.0 mL
- Amount of solvent for dissolving 1 g of tested drug (Solubility test; solvent Water): 800 mL
- Solubility (Solubility test; solvent Water): Slightly soluble
- Amount of solvent for dissolving tested drug (Solubility test; solvent Water): 8.0 mL
- Change in the appearance and color, the drying loss, the content and the related substances [2]: no obvious change
- Stability in the light exposure test (conclusion) ([3]; 4500±500Lx, 10 days): stable
- Appearance and color ([3]; 0th day): White powder
- Content ([3]; 0th day): 99.97%
- Drying loss ([3]; 0th day): 0.38%
- Related substances ([3]; 0th day): Not detected
- Appearance and color ([3]; 5th day): White powder
- Content ([3]; 5th day): 99.92%
- Drying loss ([3]; 5th day): 0.33%
- Related substances ([3]; 5th day): Not detected
- Appearance and color ([3]; 10th day): White powder
- Content ([3]; 10th day): 99.95%
- Drying loss ([3]; 10th day): 0.29%
- Related substances ([3]; 10th day): Not detected
- Stability in the high-humidity test (conclusion) ([4]; 25° C., relative humidity 75±5%, 10 days): stable
- Appearance and color [4, 5]: White powder
- Content [4, 5]: 99.97%
- Weight gain of moisture absorption [4, 5]: 0%
- Related substances [4, 5]: Not detected
- Appearance and color [4, 6]: White powder
- Content [4, 6]: 99.63%
- Weight gain of moisture absorption [4, 6]: 0.37%
- Related substances [4, 6]: Not detected
- Appearance and color [4, 7]: White powder
- Content [4, 7]: 99.57%
- Weight gain of moisture absorption [4, 7]: 0.52%
- Related substances [4, 7]: Not detected
- Weight gain of moisture absorption (trend) ([4]; under the high-humidity condition): slightly increased
Structure (SMILES): Cn1nnc2c(C(N)=O)ncn2c1=O [Form B, Temozolomide]
